Tests used:
[1] = In vitro rat microsomal stability assay; assay type: in vitro ADME, rat (Sprague-Dawley); details: Sprague-Dawley, rat, 0.5 h, 0.5 μM, pH 7.4
In short: (§1)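 Metabolic stability was measured in liver microsomes from Sprague-Dawley rat or from human. Incubations ran at 37 °C with NADPH as cofactor, and NADPH was also added to the time-zero samples.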

[2] = In vitro human microsomal stability assay; assay type: in vitro ADME; details: human, 0.5 h, 0.5 μM, pH 7.4
In short: as §1

[3] = target: T1, human TRPV3 (Homo sapiens, UniProt Q8NET8); assay: In vitro antagonism of recombinant human TRPV3 activation (FLIPR Tetra calcium assay, 2-APB as agonist); assay type: cell-based; details: HEK293 cells stably expressing human TRPV3; 2-APB 80 μM; range class; read-out: IC50 (reported range)
T1 construct: expressed in transfected cells
T1 sequence (Q8NET8 1-790): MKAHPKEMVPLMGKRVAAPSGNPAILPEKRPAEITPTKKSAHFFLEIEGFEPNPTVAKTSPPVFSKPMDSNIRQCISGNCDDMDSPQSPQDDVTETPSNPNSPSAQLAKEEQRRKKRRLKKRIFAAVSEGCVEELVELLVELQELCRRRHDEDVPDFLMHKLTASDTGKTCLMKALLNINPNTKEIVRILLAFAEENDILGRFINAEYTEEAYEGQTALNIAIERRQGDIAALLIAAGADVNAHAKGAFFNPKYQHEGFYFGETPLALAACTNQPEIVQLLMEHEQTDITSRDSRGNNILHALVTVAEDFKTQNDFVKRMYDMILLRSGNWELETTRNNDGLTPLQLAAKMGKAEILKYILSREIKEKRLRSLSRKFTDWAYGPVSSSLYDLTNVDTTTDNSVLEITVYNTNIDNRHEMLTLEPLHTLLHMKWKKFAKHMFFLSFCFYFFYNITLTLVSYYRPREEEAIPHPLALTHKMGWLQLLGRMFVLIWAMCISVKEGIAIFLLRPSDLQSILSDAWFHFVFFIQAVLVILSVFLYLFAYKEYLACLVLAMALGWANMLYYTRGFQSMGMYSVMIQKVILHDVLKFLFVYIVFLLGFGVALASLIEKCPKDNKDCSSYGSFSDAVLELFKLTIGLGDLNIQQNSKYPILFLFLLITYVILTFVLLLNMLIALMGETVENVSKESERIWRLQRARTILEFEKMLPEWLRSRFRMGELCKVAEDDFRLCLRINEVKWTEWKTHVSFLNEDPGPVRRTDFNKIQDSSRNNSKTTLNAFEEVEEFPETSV
In short: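 HEK293 cells stably expressing human TRPV3, loaded with Calcium-4 dye for 90-120 min; compound added 3 min before 2-APB at 80 μM (its EC80). Fluorescence (max minus min) over 10 min expressed as % of maximal 2-APB response without antagonist; IC50 mostly averaged from n≧2 runs.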

SMILES | RAT MICROSOMAL STABILITY (% REMAINING AFTER 30 MINUTES) [1] [%] | HUMAN MICROSOMAL STABILITY (% REMAINING AFTER 30 MINUTES) [2] [%] | IC50 [3] [µM]
CON=C1CC(c2ccc(OC(F)(F)F)cc2)([C@H](O)c2ccccn2)C1 (stereo partly drawn) [Example 249, (S)-{3-(methoxyimino)-1-[4-(trifluoromethoxy)phenyl]cyclobutyl}(pyridin-2-yl)methanol] | 3.2 | 61 | 1.1 to 5
Cc1ccccc1CC1(C(O)c2ccccn2)CCC1 (stereo not drawn) [Example 253, [1-(2-methylbenzyl)cyclobutyl](pyridin-2-yl)methanol] | 0.017 | 0.21 | 1.1 to 5
OC(c1ccccn1)C1(c2ccc(F)c(Cl)c2)CC2(C1)OCCO2 (stereo not drawn) [Example 255, [2-(3-chloro-4-fluorophenyl)-5,8-dioxaspiro[3.4]oct-2-yl](pyridin-2-yl)-methanol] | <0.01 | 54 | 5.1 to 20
O=C1CC(c2ccc(F)c(Cl)c2)(C(O)c2ccccn2)C1 (stereo not drawn) [Example 258, 3-(3-chloro-4-fluorophenyl)-3-[hydroxy(pyridin-2-yl)methyl]cyclobutanone] | 53 | 70 | 5.1 to 20
OC(c1ccccn1)C1(C2=CCC(F)(F)CC2)CCC1 (stereo not drawn) [Example 260, [1-(4,4-difluorocyclohex-1-en-1-yl)cyclobutyl](pyridin-2-yl)methanol] | <0.01 | 12 | 5.1 to 20
OC(c1ccccn1)C1(C2=CCCC(C(F)(F)F)C2)CCC1 (stereo not drawn) [Example 261, pyridin-2-yl{1-[5-(trifluoromethyl)cyclohex-1-en-1-yl]cyclobutyl}methanol] | <0.01 | 0.01 | 1.1 to 5
OC(c1ccccn1)C1(c2nc3ccccc3s2)CCC1 (stereo not drawn) [Example 266, [1-(1,3-benzothiazol-2-yl)cyclobutyl](pyridin-2-yl)methanol] | 0.14 | 46 | 1.1 to 5
CN(C)N=C1CC(c2ccc(OC(F)(F)F)cc2)([C@H](O)c2ccccn2)C1 (stereo partly drawn) [Example 267, (S)-{3-(dimethylhydrazinylidene)-1-[4-(trifluoromethoxy)phenyl]-cyclobutyl}(pyridin-2-yl)methanol] | 10 | 64 | 1.1 to 5
OC(c1ccccn1)C1(c2nc3ccccc3o2)CCC1 (stereo not drawn) [Example 271, [1-(1,3-benzoxazol-2-yl)cyclobutyl](pyridin-2-yl)methanol] | 8.6 | 62 | 1.1 to 5
OC1CC(c2cccc(OC(F)(F)F)c2)(C(O)c2ccccn2)C1 [Example 272, cis-3-[(S)-hydroxy(pyridin-2-yl)methyl]-3-[3-(trifluoromethoxy)phenyl]-cyclobutanol] | 48 | 54 | 0.05 to 0.5
OC1CC(c2ccc(F)c(Cl)c2)([C@H](O)c2ccccn2)C1 (stereo partly drawn) [Example 276, 3-(3-chloro-4-fluorophenyl)-3-[(S)-hydroxy(pyridin-2-yl)methyl]-cyclobutanol] | 73 | 72 | 0.05 to 0.5
O=C1CC(c2cc(C(F)(F)F)ccn2)([C@H](O)c2ccccn2)C1 [Example 277, 3-[(S)-hydroxy(pyridin-2-yl)methyl]-3-[4-(trifluoromethyl)pyridin-2-yl]-cyclobutanone] | >85 | >85 | 1.1 to 5
O=C1CC(c2cc(C(F)(F)F)ccn2)([C@@H](O)c2ccccn2)C1 [Example 278, 3-[(R)-hydroxy(pyridin-2-yl)methyl]-3-[4-(trifluoromethyl)pyridin-2-yl]-cyclobutanone] | >85 | 83 | 5.1 to 20
OC(c1ccccn1)C1(C2CCCOC2)CCC1 (stereo not drawn) [Example 281, pyridin-2-yl[1-(tetrahydro-2H-pyran-3-yl)cyclobutyl]methanol] | 0.054 | >85 | 5.1 to 20
Cc1cc(C(F)(F)F)cc(C2([C@@H](O)c3ccccn3)CC(=O)C2)n1 [Example 291, 3-[(R)-hydroxy(pyridin-2-yl)methyl]-3-[6-methyl-4-(trifluoromethyl)pyridin-2-yl]cyclobutanone] | 53 | >85 | 5.1 to 20

More lines, now with the values ahead:

RAT MICROSOMAL STABILITY (% REMAINING AFTER 30 MINUTES) [1] [%] | HUMAN MICROSOMAL STABILITY (% REMAINING AFTER 30 MINUTES) [2] [%] | IC50 [3] [µM] | SMILES
70 | 70 | 5.1 to 20 | C[C@]1(O)C[C@@](c2ccc(OC(F)(F)F)cc2)([C@@H](O)c2ccccn2)C1 [Example 250, cis-3-[(R)-hydroxy(pyridin-2-yl)methyl]-1-methyl-3-[4-(trifluoromethoxy)-phenyl]cyclobutanol]
0.57 | 1.1 | 1.1 to 5 | OC(c1ccccn1)C1(Cc2cccc(F)c2)CCC1 (stereo not drawn) [Example 254, [1-(3-fluorobenzyl)cyclobutyl](pyridin-2-yl)methanol]
0.059 | 43 | 5.1 to 20 | CC(C)(C)OC(=O)N1CCC(C2(C(O)c3ccccn3)CCC2)C1 (stereo not drawn) [Example 265, tert-butyl 3-{1-[hydroxy(pyridin-2-yl)methyl]cyclobutyl}pyrrolidine-1-carboxylate]
65 | 42 | 0.05 to 0.5 | OC1CC(c2cccc(OC(F)(F)F)c2)(C(O)c2ccccn2)C1 [Example 273, trans-3-[(S)-hydroxy(pyridin-2-yl)methyl]-3-[3-(trifluoromethoxy)phenyl]-cyclobutanol]
10 | 55 | 1.1 to 5 | OC(c1ccccn1)C1(C2CCC(F)(F)CC2)CCC1 (stereo not drawn) [Example 274, [1-(4,4-difluorocyclohexyl)cyclobutyl](pyridin-2-yl)methanol]
5.7 | 67 | 5.1 to 20 | Cn1c(C2(C(O)c3ccccn3)CCC2)nc2ccccc21 (stereo not drawn) [Example 275, [1-(1-methyl-1H-benzimidazol-2-yl)cyclobutyl](pyridin-2-yl)methanol]
<0.01 | 22 | 5.1 to 20 | CC(C)(C)OC(=O)N1CCC(C2(C(O)c3ccccn3)CCC2)CC1 (stereo not drawn) [Example 279, tert-butyl 4-{1-[hydroxy(pyridin-2-yl)methyl]cyclobutyl}piperidine-1-carboxylate]
<0.01 | 9.0 | 1.1 to 5 | OC(c1ccccn1)C1(C2CCC(C(F)(F)F)CC2)CCC1 (stereo not drawn) [Example 280, pyridin-2-yl{1-[4-(trifluoromethyl)cyclohexyl]cyclobutyl}methanol]
>85 | >85 | 0.501 to 1 | OC1CC(c2cc(C(F)(F)F)ccn2)(C(O)c2ccccn2)C1 [Example 282, cis-3-[(S)-hydroxy(pyridin-2-yl)methyl]-3-[4-(trifluoromethyl)pyridin-2-yl]-cyclobutanol]
>85 | >85 | 0.501 to 1 | OC1CC(c2cc(C(F)(F)F)ccn2)(C(O)c2ccccn2)C1 [Example 283, trans-3-[(S)-hydroxy(pyridin-2-yl)methyl]-3-[4-(trifluoromethyl)pyridin-2-yl]cyclobutanol]
<0.01 | <0.01 | 5.1 to 20 | CC(=O)O[C@H](c1ccccn1)C1(c2ccc(OC(F)(F)F)cc2)CCC1 [Example 288, (S)-pyridin-2-yl{1-[4-(trifluoromethoxy)phenyl]cyclobutyl}methyl acetate]

Source: patent publication US8772500B2, “TRPV3 modulators” (AbbVie Inc., priority 2011, dated 2014)
